PubChem BioAssay (NCI)
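Method: 48-hour compound exposure of cells in 96-well plates, five concentrations, linear interpolation of endpoints. TGI is the concentration that stops growth completely.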

Columns and labels:
Experiment in all cases: NCI anticancer screen, dose series, 48 h
NCI/ADR-RES ovarian = test system: NCI/ADR-RES ovarian
A498 renal = test system: A498 renal
NCI-H226 lung = test system: NCI-H226 lung
NCI-H522 lung = test system: NCI-H522 lung
HT29 colon = test system: HT29 colon
DU-145 prostate = test system: DU-145 prostate
OVCAR-3 ovarian = test system: OVCAR-3 ovarian
MDA-MB-435 = test system: MDA-MB-435
786-0 renal = test system: 786-0 renal
OVCAR-4 ovarian = test system: OVCAR-4 ovarian
SF-295 CNS = test system: SF-295 CNS
ACHN renal = test system: ACHN renal
HOP-62 NSCLC = test system: HOP-62 NSCLC
OVCAR-8 ovarian = test system: OVCAR-8 ovarian
SK-MEL-5 melanoma = test system: SK-MEL-5 melanoma
MALME-3M melanoma = test system: MALME-3M melanoma
NCI-H23 lung = test system: NCI-H23 lung
SF-539 CNS = test system: SF-539 CNS
EKVX NSCLC = test system: EKVX NSCLC
OVCAR-5 ovarian = test system: OVCAR-5 ovarian
KM12 colon = test system: KM12 colon
IGROV1 ovarian = test system: IGROV1 ovarian
SK-OV-3 ovarian = test system: SK-OV-3 ovarian
K-562 leukemia = test system: K-562 leukemia
LOX IMVI melanoma = test system: LOX IMVI melanoma
T-47D breast = test system: T-47D breast
SNB-19 CNS = test system: SNB-19 CNS
HOP-92 NSCLC = test system: HOP-92 NSCLC
SNB-75 CNS = test system: SNB-75 CNS
MOLT-4 leukemia = test system: MOLT-4 leukemia
SR leukemia = test system: SR leukemia
SN12C renal = test system: SN12C renal
MDA-MB-231 breast = test system: MDA-MB-231 breast
HS 578T breast = test system: HS 578T breast
SW-620 colon = test system: SW-620 colon
UACC-257 melanoma = test system: UACC-257 melanoma
HL-60(TB) leukemia = test system: HL-60(TB) leukemia
MCF7 breast = test system: MCF7 breast
M14 melanoma = test system: M14 melanoma
SK-MEL-28 melanoma = test system: SK-MEL-28 melanoma
CCRF-CEM leukemia = test system: CCRF-CEM leukemia
UACC-62 melanoma = test system: UACC-62 melanoma
HCT-116 colon = test system: HCT-116 colon
U251 CNS = test system: U251 CNS
BT-549 breast = test system: BT-549 breast
UO-31 renal = test system: UO-31 renal
TK-10 renal = test system: TK-10 renal
A549 NSCLC = test system: A549 NSCLC
SF-268 CNS = test system: SF-268 CNS
HCT-15 colon = test system: HCT-15 colon
RXF 393 renal = test system: RXF 393 renal
RPMI-8226 leukemia = test system: RPMI-8226 leukemia
HCC-2998 colon = test system: HCC-2998 colon
NCI-H460 lung = test system: NCI-H460 lung
PC-3 prostate = test system: PC-3 prostate
COLO 205 colon = test system: COLO 205 colon
CAKI-1 renal = test system: CAKI-1 renal
SK-MEL-2 melanoma = test system: SK-MEL-2 melanoma
MDA-N = test system: MDA-N

In the case of `CCOc1ccc(NCC2CC/C(=C\C=C\c3ccccc3)C2=O)cc1` (stereo unspecified), the TGI (NCI/ADR-RES ovarian) is reported as greater than 75.3 µM, the TGI (A498 renal) is reported as greater than 100 µM and the TGI (NCI-H226 lung) is reported as greater than 100 µM. For the same molecule, the TGI (NCI-H522 lung) was 32.3 µM, the TGI (HT29 colon) was 30.3 µM and the TGI (DU-145 prostate) was greater than 93.3 µM. It also gave a TGI (OVCAR-3 ovarian) of 34.4 µM, a TGI (MDA-MB-435) of 30.4 µM and a TGI (786-0 renal) of 13.5 µM. The TGI (OVCAR-4 ovarian) was 73.9 µM, the TGI (SF-295 CNS) was 79.5 µM and the TGI (ACHN renal) was greater than 92.2 µM. For the same molecule, the TGI (HOP-62 NSCLC) was greater than 62 µM, the TGI (OVCAR-8 ovarian) was 42.9 µM and the TGI (SK-MEL-5 melanoma) was 30.7 µM. It also gave a TGI (MALME-3M melanoma) of 57.8 µM, a TGI (NCI-H23 lung) of 39.3 µM and a TGI (SF-539 CNS) of 37.8 µM. It also gave a TGI (EKVX NSCLC) greater than 86.2 µM, a TGI (OVCAR-5 ovarian) of 53.4 µM and a TGI (KM12 colon) of 20.1 µM. It also gave a TGI (IGROV1 ovarian) of 17.5 µM, a TGI (SK-OV-3 ovarian) greater than 100 µM and a TGI (K-562 leukemia) greater than 100 µM. The TGI (LOX IMVI melanoma) was 23.5 µM, the TGI (T-47D breast) was 45.3 µM and the TGI (SNB-19 CNS) was 60.9 µM. It also gave a TGI (HOP-92 NSCLC) of 45.5 µM, a TGI (SNB-75 CNS) of 59.9 µM and a TGI (MOLT-4 leukemia) greater than 42.9 µM. The TGI (SR leukemia) was greater than 33.3 µM, the TGI (SN12C renal) was 35.4 µM and the TGI (MDA-MB-231 breast) was 24.7 µM. For the same molecule, the TGI (HS 578T breast) was 65.2 µM, the TGI (SW-620 colon) was 21.3 µM and the TGI (UACC-257 melanoma) was 38.4 µM. It also gave a TGI (HL-60(TB) leukemia) of 47.8 µM, a TGI (MCF7 breast) of 12.3 µM and a TGI (M14 melanoma) of 29.6 µM. For the same molecule, the TGI (SK-MEL-28 melanoma) was 35.5 µM, the TGI (CCRF-CEM leukemia) was greater than 100 µM and the TGI (UACC-62 melanoma) was 54.2 µM. It also gave a TGI (HCT-116 colon) of 20.4 µM, a TGI (U251 CNS) of 35.5 µM and a TGI (BT-549 breast) of 33 µM. For the same molecule, the TGI (UO-31 renal) was 66.2 µM, the TGI (TK-10 renal) was greater than 50.7 µM and the TGI (A549 NSCLC) was greater than 100 µM. It also gave a TGI (SF-268 CNS) of 24.2 µM, a TGI (HCT-15 colon) of 18.9 µM and a TGI (RXF 393 renal) of 29.6 µM. The TGI (RPMI-8226 leukemia) was greater than 100 µM, the TGI (HCC-2998 colon) was greater than 72.4 µM and the TGI (NCI-H460 lung) was greater than 80.8 µM. It also gave a TGI (PC-3 prostate) of 49.8 µM, a TGI (COLO 205 colon) of 31.7 µM and a TGI (CAKI-1 renal) greater than 40.8 µM. The TGI (SK-MEL-2 melanoma) was greater than 100 µM.

`C=C(C)[C@H]1CC(=O)/C(C)=C\CC/C(C)=C/CC[C@@]2(C)O[C@@H]2C1` gave a TGI (NCI/ADR-RES ovarian) of 56 µM, a TGI (A498 renal) greater than 100 µM and a TGI (HT29 colon) of 33.7 µM. The TGI (DU-145 prostate) was 33.4 µM, the TGI (OVCAR-3 ovarian) was 43.9 µM and the TGI (MDA-MB-435) was 35 µM. It also gave a TGI (786-0 renal) greater than 100 µM, a TGI (OVCAR-4 ovarian) of 75.3 µM and a TGI (SF-295 CNS) of 89.8 µM. For the same molecule, the TGI (ACHN renal) was 87.3 µM, the TGI (HOP-62 NSCLC) was greater than 100 µM and the TGI (OVCAR-8 ovarian) was greater than 100 µM. It also gave a TGI (SK-MEL-5 melanoma) of 45.5 µM, a TGI (MALME-3M melanoma) of 88.7 µM and a TGI (NCI-H23 lung) of 51.8 µM. For the same molecule, the TGI (SF-539 CNS) was 42.2 µM, the TGI (OVCAR-5 ovarian) was 94.8 µM and the TGI (KM12 colon) was 44.3 µM. For the same molecule, the TGI (IGROV1 ovarian) was greater than 100 µM, the TGI (SK-OV-3 ovarian) was 59 µM and the TGI (K-562 leukemia) was greater than 100 µM. It also gave a TGI (LOX IMVI melanoma) of 32.2 µM, a TGI (SNB-19 CNS) greater than 100 µM and a TGI (HOP-92 NSCLC) greater than 100 µM. The TGI (SNB-75 CNS) was greater than 100 µM, the TGI (MOLT-4 leukemia) was greater than 100 µM and the TGI (SR leukemia) was greater than 100 µM. It also gave a TGI (SN12C renal) of 42.7 µM, a TGI (MDA-MB-231 breast) greater than 100 µM and a TGI (HS 578T breast) greater than 100 µM. For the same molecule, the TGI (SW-620 colon) was greater than 100 µM, the TGI (UACC-257 melanoma) was greater than 100 µM and the TGI (HL-60(TB) leukemia) was 66.2 µM. The TGI (M14 melanoma) was greater than 100 µM, the TGI (SK-MEL-28 melanoma) was 64.6 µM and the TGI (CCRF-CEM leukemia) was greater than 100 µM. For the same molecule, the TGI (UACC-62 melanoma) was 26.2 µM, the TGI (HCT-116 colon) was 32.8 µM and the TGI (U251 CNS) was 49.8 µM. The TGI (BT-549 breast) was greater than 100 µM, the TGI (UO-31 renal) was 48.4 µM and the TGI (TK-10 renal) was 76.5 µM. The TGI (A549 NSCLC) was 34.5 µM, the TGI (SF-268 CNS) was 61.2 µM and the TGI (HCT-15 colon) was greater than 100 µM. For the same molecule, the TGI (RPMI-8226 leukemia) was 52.1 µM, the TGI (HCC-2998 colon) was 93.1 µM and the TGI (NCI-H460 lung) was 33.1 µM. It also gave a TGI (PC-3 prostate) of 64.5 µM, a TGI (MDA-N) of 94.4 µM and a TGI (COLO 205 colon) of 32 µM. For the same molecule, the TGI (CAKI-1 renal) was 9.41 µM and the TGI (SK-MEL-2 melanoma) was greater than 100 µM.
